Results reported in patent US11491168B2, “Combination of Bcl-2/Bcl-xL inhibitors and chemotherapeutic agent and use thereof” (ASCENTAGE PHARMA (SUZHOU) CO., LTD., priority 2019, dated 2022).
Where “and” joins values, the source holds several entries; their conditions need not be identical. Identical values can stand only once. Like-named read-outs stand apart in the source and are kept apart here.

How the values were obtained:
AGS cells = experiment: AnnexinV/PI staining apoptosis, AGS; assay type: cell-based; settings: 48 hours, Compound 31 0.3 μM, 5-FU 3 μM
Procedure: (§1) The inventors chose to combine Compound 31 with one of the most common chemotherapeutic drugs in clinic, 5-fluorouracil (5-FU). In order to investigate the effect and the potential mechanisms of Compound 31 and 5-FU on the growth of gastric cancer cells, the inventors used the AnnexinV/PI staining to detect the apoptosis of two gastric cancer cells, AGS and NCI-N87, 48 hours after the treatment with Compound 31 (0.3 μM), 5-FU (3 μM), and the combination at specified concentrations. […] In NCI-N87 cells, the combination group also achieved a higher apoptosis rate than the mono therapy groups, Compound 31 or 5-FU as a single agent leading to apoptosis rates of 24% or 18% while the combination group reaching an apoptosis rate of 46% (FIG. 29(a)).

NCI-N87 cells = experiment: AnnexinV/PI staining apoptosis, NCI-N87; assay type: cell-based; settings: NCI-N87, 48 hours; Compound 31 0.3 μM, 5-FU 3 μM
Procedure: as §1

NCI-N87 xenograft [1] = experiment: NCI-N87 xenograft model, Compound 15 with 5-FU; settings: for mouse tumor volume upon the end point: Compound 15 50 mg/kg qd 10 days, 5-FU 25 mg/kg once a week for two weeks
Bcl-2 = Bcl-2 (Homo sapiens, UniProt P10415); experiment: binding to Bcl-2 protein
Chain of Bcl-2 (P10415 whole entry): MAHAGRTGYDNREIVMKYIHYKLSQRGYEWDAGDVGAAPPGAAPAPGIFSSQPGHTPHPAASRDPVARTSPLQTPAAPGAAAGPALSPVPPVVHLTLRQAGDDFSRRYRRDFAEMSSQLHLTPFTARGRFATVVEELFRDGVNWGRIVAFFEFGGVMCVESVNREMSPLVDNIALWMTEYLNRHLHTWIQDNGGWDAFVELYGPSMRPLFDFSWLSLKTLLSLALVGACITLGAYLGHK

Bcl-xl = Bcl-xl (Homo sapiens, UniProt Q07817); experiment: binding to Bcl-xl protein
Chain of Bcl-xl (Q07817 whole entry): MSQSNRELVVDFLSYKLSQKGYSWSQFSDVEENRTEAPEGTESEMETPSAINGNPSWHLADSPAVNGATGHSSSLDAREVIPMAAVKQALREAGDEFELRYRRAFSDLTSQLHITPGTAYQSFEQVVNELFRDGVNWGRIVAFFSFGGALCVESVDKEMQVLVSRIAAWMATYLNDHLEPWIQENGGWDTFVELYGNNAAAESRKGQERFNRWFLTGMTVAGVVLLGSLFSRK

Bcl-w = Bcl-w (Homo sapiens, UniProt Q92843); experiment: binding to Bcl-w protein
Chain of Bcl-w (Q92843 whole entry): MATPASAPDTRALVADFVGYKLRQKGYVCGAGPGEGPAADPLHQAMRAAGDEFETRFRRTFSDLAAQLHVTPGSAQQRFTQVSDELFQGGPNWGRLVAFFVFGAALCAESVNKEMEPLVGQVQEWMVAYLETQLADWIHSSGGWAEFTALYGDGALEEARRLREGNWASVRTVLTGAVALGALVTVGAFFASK

Mcl-1 = Mcl-1 (Homo sapiens, UniProt Q07820); experiment: binding to Mcl-1
Chain of Mcl-1 (Q07820 whole entry): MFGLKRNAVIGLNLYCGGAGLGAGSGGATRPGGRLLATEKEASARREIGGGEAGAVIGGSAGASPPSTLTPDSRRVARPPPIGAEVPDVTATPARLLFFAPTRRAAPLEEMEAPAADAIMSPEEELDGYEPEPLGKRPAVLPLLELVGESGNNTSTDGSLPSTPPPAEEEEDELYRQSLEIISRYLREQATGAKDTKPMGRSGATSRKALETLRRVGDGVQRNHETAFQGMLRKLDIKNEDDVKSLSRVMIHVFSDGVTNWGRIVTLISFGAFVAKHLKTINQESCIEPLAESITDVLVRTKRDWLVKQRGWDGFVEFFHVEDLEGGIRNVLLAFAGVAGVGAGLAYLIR

platelet = platelet toxicity; settings: versus first-generation BCL-2 inhibitors
[2] = activity compared with first generation BCL-2 inhibitor
[3] = test system: human SW620 cell line colon cancer xenograft; experiment: SW620 colon cancer xenograft model; assay type: in vivo, mice; settings: single agents: Compound 15 100 mg/kg; irinotecan 50 mg/kg
Procedure: (§4) Subcutaneous xenograft tumor model of human cancer was established in immunodeficient mouse by cell inoculation: tumor cells in logarithmic growth phase were collected, counted, and then re-suspended in 1×PBS. The concentration of the cell suspension was adjusted to 2.5-5×10^7/mL. Tumor cells were inoculated subcutaneously in the right back of the immunized normal mouse with a 1 mL syringe (4 gauge needle) at 5-10×10^6/0.2 mL/mouse.
(§5) Animal weight and tumor size were measured twice a week during the study. The animals were checked daily for morbility and etc. […] Mortality and clinical signs observed during the study were recorded in the raw data. […]
(§6) Tumor volume (TV) was calculated as: TV=a×b^2/2 wherein a and b represent the measured length and width of tumor, respectively.
(§7) Relative tumor volume (RTV) was calculated as: RTV=Vt/V1 wherein V1 was the tumor volume on the first day of dosing, and Vt was the tumor volume measured on day t after dosing.
(§8) Relative tumor proliferation rate T/C (%), as an indication of anti-tumor effectiveness, was calculated as: Relative tumor proliferation rate T/C (%)=(TRTV/CRTV)×100%, wherein TRTV was RTV in treatment group, and CRTV was RTV in vehicle control group. […]

metastatic solid tumors [4] = experiment: Phase I or I/II clinical trials, pooled results as of Jan. 31, 2019; assay type: in vivo
Procedure: Three clinical trials (Phase I or Phase I/II) with similar study designs were conducted in the United States, Australia, and China. […] Tumor response assessment was performed every 2 cycles according to RECIST 1.1 criteria.

metastatic solid tumors [5] = experiment: U.S. clinical trial as of Dec. 21, 2019; assay type: in vivo
Procedure: Three clinical trials (Phase I or Phase I/II) with similar study designs were conducted in the United States, Australia, and China. During the dose escalation phase, the patient received Compound 15 (10-400 mg) twice weekly or weekly intravenously for a 28-day treatment cycle. Tumor response assessment was performed every 2 cycles according to RECIST 1.1 criteria. The purpose of the study was to assess safety, maximum tolerated dose (MTD)/recommended phase II dose (RP2D), pharmacokinetics (PK), pharmacodynamics (PD), and the preliminary efficacy of Compound 15 as a single agent in metastatic solid tumors.
As of Dec. 21, 2019, 42 US patients with metastatic solid tumors (Table A) received Compound 15 treatment ranging from 10-400 mg in at least one 28-day cycle. The patients were treated in 2 cohorts. 31 patients in cohort 1 received Compound 15 twice a week (BIW) by intravenous (IV) infusion at a dose of 10 mg, 20 mg, 40 mg, 80 mg, 160 mg, 240 mg, 320 mg, or 400 mg; 11 patients in cohort 2 received Compound 15 once a week (QW) by IV infusion at a dose of 240 mg or 320 mg.

[6] = test system: SCLC patient-derived xenograft LU5250; experiment: LU5250 SCLC patient-derived xenograft; assay type: in vivo, female NOD.SCID mice; settings: for T/C (%) @ day 21: doses as Table 3; for RTV @day 21: mean ± SEM, Compound 15 50 mg/kg i.v. BIW, Irinotecan 10 mg/kg i.p. Q4D, Paclitaxel 10 mg/kg i.v. Q4D
Procedure: (§2) The therapeutic efficacy of compound 15 alone and its multiple combinations in the treatment of subcutaneous HuPrime® Lung cancer xenograft model LU5250 and LU5188 in female NOD.SCID mice was evaluated.
(§3) Either LU5250 or LU5188 tumor mass with rough size of 3×3×3 mm^3 were inoculated into female NOD.SCID mice and the day of randomization was denoted as day 1. The treatment was initiated on day 1 when tumors approximated a mean volume 136 mm^3 of LU5250 and 155 mm^3 of LU5188, respectively. There were 6 groups enrolled in each model eventually. See Table 3 for the mode of administration and doses. Both models were taken down on day 21.

[7] = test system: SCLC patient-derived xenograft LU5188; experiment: LU5188 SCLC patient-derived xenograft; assay type: in vivo, female NOD.SCID mice; settings: for T/C (%) @ day 21: doses as Table 3; for RTV @day 21: mean ± SEM, Compound 15 50 mg/kg i.v. BIW, Irinotecan 10 mg/kg i.p. Q4D, Paclitaxel 10 mg/kg i.v. Q4D
Procedure: as §2, §3

[8] = test system: subcutaneous NCI-H146 lung cancer xenograft; experiment: NCI-H146 lung cancer xenograft model (Example 8); assay type: in vivo, female SCID mice; settings: for RTV @day 21: Compound 15 20 mg/kg i.v. BIW, Irinotecan 5 mg/kg i.p. QW, Paclitaxel 10 mg/kg i.v. QW, Cisplatin 1 mg/kg i.p. Q4D; for mRECIST_best: best response during the treatment, PR partial response, CR complete response, SD stable disease, PD progressive disease; for T/C (%) @ day 21: doses as Table 6; for mRECIST_last: response on the last day of treatment, PR, CR, SD, PD
Procedure: The therapeutic efficacy of compound 15 alone and in multiple combinations in the treatment of subcutaneous NCI-H146 lung cancer xenograft model was evaluated.
1×10^7 NCI-H146 tumor cells were pre-treated in 0.1 mL of phosphate buffer and Matrigel (7:3) and inoculated into female SCID mice. The day of randomization was denoted as day 1. The treatment was initiated on day 1. The study was conducted in 8 groups of mice. See Table 6 for the mode of administration and doses. The entire study was taken down on day 21. The study was conducted in 40 mice. All the animals were randomized into 8 experimental groups.

NCI-N87 xenograft [9] = experiment: NCI-N87 xenograft model, Compound 15 single agent; assay type: in vivo, nude mice; settings: for mouse tumor volume upon the end point: tail vein injection, 10 consecutive days
Procedure: The NCI-N87 tumor-bearing mice were treated with different doses of Compound 15 by tail vein injection for 10 consecutive days.
The inventors extracted proteins from the removed tumor tissues and prepared tissue sections.

[10] = test system: human PC3 cell line prostate cancer xenograft; experiment: PC3 prostate cancer xenograft model; settings: Compound 15 100 mg/kg; docetaxel 8 mg/kg
Procedure: as §4, §5, §6, §7, §8

[11] = test system: MDA-MB-231 triple-negative breast cancer tumor cell line; experiment: WST (CCK-8) anti-proliferation assay
Procedure: Cell plating: Anti-proliferation effects were detected by a CCK-8 (Cell Counting Kit-8) assay based on water soluble tetrazolium salt (WST).
The cells were seeded in 96-well plates. 95 μL complete medium was added to each negative control group, and 95 μL cell suspension in complete medium was added at a density of 5-10×10^4 cells/well to each well to be tested.
The MGC80-3 and SW620 used in the examples were purchased from the Cell Bank of the Shanghai Institute of Biochemistry and Cell Biology, Chinese Academy of Sciences. MDA-MB-231, PC-3, and NCI-H146 were available from the American Type Culture Collection (ATCC) under accession Nos. HTB-26, CRL-1435, and HTB-173, respectively. It should be noted that the cells used in the present disclosure are all available from ATCC. […]
Reading: At the end of the culture, for adherent cells, the old solution in the test wells was removed and 100 μl/well CCK-8 test solution (the corresponding medium containing 10% CCK-8, 5% FBS) was added. […]
The OD value was measured using a microplate reader (SpectraMax Plus 384, Molecular Devices, LLC., US) A450 nm. […] The percentage of cell viability was calculated by the following formula: (O.D. test well−O.D. blank control well)/(O.D. cell control well−O.D. blank control well)×100%.
The IC50 was calculated using the nonlinear regression data analysis method of Graphpad Prism 6.0 software.

[12] = test system: human MGC80-3 cell line gastric cancer xenograft; experiment: MGC80-3 gastric cancer xenograft model
Procedure: as §4
Animal weight and tumor size were measured twice a week during the study. The animals were checked daily for morbility and etc. At the time of routine monitoring, the animal were checked for any effects of tumor growth and treatments on behaviors such as mobility, food and water consumption, body weight gain/loss, eyes, hairing and any other abnormalities. Mortality and clinical signs observed during the study were recorded in the raw data. The dosing of the drugs and the measurement of mouse weight and tumor volume were all conducted in a laminar flow cabinet. According to requirements of the study protocol, plasma and tumor tissue were collected, weighed and photographed at the end of last dosing. Plasma and tumor samples were frozen at −80° C. for later use.
as §6, §7
Relative tumor proliferation rate T/C (%), as an indication of anti-tumor effectiveness, was calculated as: Relative tumor proliferation rate T/C (%)=(TRTV/CRTV)×100%, wherein TRTV was RTV in treatment group, and CRTV was RTV in vehicle control group.
Tumor remission rate (%) was calculated by dividing the number of tumor bearing mice that show SD (stable disease), PR (partial regression) and CR (complete regression) after treatment by the total number of mice in the group×100%. Change of body weight (%)=(measured body weight−body weight at randomization)/body weight at randomization×100%.

[13] = FIG. 6: Compound 15 100 mg/kg, docetaxel 12 mg/kg, cisplatin 3 mg/kg

O=c1[nH]cc(F)c(=O)[nH]1 [Compound 5-FU, 5-fluorouracil, reference compound]
apoptosis rate (AGS cells): ~15% | apoptosis rate (NCI-N87 cells): 18% | mouse tumor volume upon the end point (NCI-N87 xenograft [1]): 2200 mm^3

Cc1c(S(C)(=O)=O)c(-c2cc(F)cc(N3CCN(c4ccc(NS(=O)(=O)c5ccc(N[C@H](CCN6CCC(C(=O)OCCP(=O)(O)O)CC6)CSc6ccccc6)c(S(=O)(=O)C(F)(F)F)c5)cc4)CC3)c2)c(-c2ccc(Cl)cc2)n1C(C)C [Compound 15, (R)-2-(1-(3-(4-(N-(4-(4-(3-(2-(4-chlorophenyl)-1-isopropyl-5-methyl-4-(methylsulfonyl)-1H-pyrrol-3-yl)-5-fluorophenyl)piperazin-1-yl)phenyl)sulfamoyl)-2-(trifluoromethylsulfonyl)phenylamino)-4-(phenylthio)butyl)piperidine-4-carbonyloxy)ethylphosphonic acid]
IC50 (Bcl-2): 1.6 nM | IC50 (Bcl-xl): 4.4 nM | IC50 (Bcl-w): 9.3 nM | binding to Mcl-1 (Mcl-1): binds weakly | platelet toxicity reduced (platelet): 10-30 times | activity relative to the first generation BCL-2 inhibitor [2]: about 10 times | T/C (%) [3]: 60.6% | patients with partial remission (PR) (metastatic solid tumors [4]; 19 evaluated SCLC patients, US patient, dose of 40 mg): 1 | grade 3/4 AE: decreased lymphocyte count (metastatic solid tumors [4]; 44 patients): 6.8% | grade 3/4 AE: elevated lipase (metastatic solid tumors [4]; 44 patients): 6.8% | grade 3/4 AE: hyponatremia (metastatic solid tumors [4]; 44 patients): 11.4% | tolerability (metastatic solid tumors [4]; 44 patients, 7 dose levels, i.v. twice weekly or weekly): well tolerated at all tested dose levels | cases of stable disease in other tumor types (metastatic solid tumors [4]; Australian studies, e.g. CRC): 5 | AUC and Cmax on day 1 versus dose (metastatic solid tumors [4]; dose range of 10-160 mg): increased proportionally with dose | MTD (metastatic solid tumors [4]; pooled analysis): had not been reached | patients with partial response (PR) (metastatic solid tumors [5]; 36 patients with post-baseline tumor measurements): 3 | MTD/RP2D (metastatic solid tumors [5]; QW): 240 mg | duration of PR (metastatic solid tumors [5]; SCLC patient #002-001, 40 mg BIW): 19 cycles | accumulation (metastatic solid tumors [5]; human, in vivo): No significant accumulation | time to resolution of platelet drop / thrombocytopenia (metastatic solid tumors [5]; human, in vivo): 2 to 6 days | TRAE: alanine aminotransferase increased (metastatic solid tumors [5]; human, in vivo, 28 day): 7.1% | TRAE: aspartate aminotransferase increased (metastatic solid tumors [5]; human, in vivo, 28 day): 9.5% | TRAE: platelet count decreased (metastatic solid tumors [5]; human, in vivo, 28 day): 14.3% | patients with ≥G3 treatment emergent adverse events (TRAEs) (metastatic solid tumors [5]; human, in vivo, 28 day): 26.2% | Cmax and AUC versus dose (metastatic solid tumors [5]; human, in vivo, iv): approximately dose proportional | T/C (%) @ day 21 [6]: 136.8% | RTV @day 21 [6]: 9.75 ± 3.77 | T/C (%) @ day 21 [7]: 125.4% | RTV @day 21 [7]: 17.05 ± 6.59 | RTV @day 21 [8]: 2.0 ± 0.3 | mRECIST_best ([8]; progressive disease): 1/5 PD | mRECIST_best ([8]; stable disease): 4/5 SD, | T/C (%) @ day 21 [8]: 70.0% | mRECIST_last ([8]; progressive disease): 4/5 PD | mRECIST_last ([8]; stable disease): 1/5 SD, | mouse tumor volume upon the end point (NCI-N87 xenograft [9]; 25 mg/kg): 700 mm^3 | mouse tumor volume upon the end point (NCI-N87 xenograft [9]; 50 mg/kg): 800 mm^3 | percentage of Ki67-positive cells (NCI-N87 xenograft [9]; 100 mg/kg group): significantly lower than other groups | mouse tumor volume upon the end point (NCI-N87 xenograft [9]; 100 mg/kg): about 400 mm^3 | cleaved-caspase3 and PARP-1 cleavage bands in the tumor tissue (NCI-N87 xenograft [9]; 25, 50, 100 mg/kg): gradually increased as the dose increased | mouse body weight (NCI-N87 xenograft [9]; among the four groups): no significant difference in body weight | weight and size of the xenograft tumors (NCI-N87 xenograft [9]; as the dosing concentration increased): showed an evident trend of reduction | T/C (%) [10]: 84.4% | IC50 ([11]; Homo sapiens, MDA-MB-231, 72 h, read-out: IC50 (A alone), MDA-MB-231, 72 hours): 2600 nM | IC50 ([11]; read-out: IC50 (A alone), MDA-MB-231, 72 hours): 4550 nM | mouse tumor volume upon the end point (NCI-N87 xenograft [1]): 1600 mm^3 | mouse body weight (NCI-N87 xenograft [1]; mouse, in vivo): rebounded after a brief weight loss

CCc1c2c(nc3ccc(OC(=O)N4CCC(N5CCCCC5)CC4)cc13)-c1cc3c(c(=O)n1C2)COC(=O)[C@]3(O)CC [Irinotecan, irinotecan]
T/C (%) [3]: 29.9% | T/C (%) @ day 21 [6]: 26.9% | RTV @day 21 [6]: 1.92 ± 0.24 | T/C (%) @ day 21 [7]: 61.8% | RTV @day 21 [7]: 8.41 ± 2.49 | RTV @day 21 [8]: 1.0 ± 0.2 | mRECIST_best [8]: 3/5 PR and 2/5 SD | T/C (%) @ day 21 [8]: 34.4% | mRECIST_last [8]: 1/5 PR, and 3/5 SD, and 1/5 PD

CC(=O)O[C@H]1C(=O)[C@@]2(C)[C@H]([C@H](OC(=O)c3ccccc3)[C@]3(O)C[C@H](OC(=O)[C@H](O)[C@@H](NC(=O)c4ccccc4)c4ccccc4)C(C)=C1C3(C)C)[C@]1(OC(C)=O)CO[C@@H]1C[C@@H]2O [Paclitaxel, paclitaxel]
T/C (%) @ day 21 [6]: 32.6% | RTV @day 21 [6]: 2.33 ± 0.13 | T/C (%) @ day 21 [7]: 151.1% | RTV @day 21 [7]: 20.55 ± 3.20 | RTV @day 21 [8]: 1.4 ± 0.4 | mRECIST_best [8]: 3/5 PR, and 2/5 SD | T/C (%) @ day 21 [8]: 48.4% | mRECIST_last [8]: 3/5 SD, and 2/5 PD

N.N.[Cl][Pt][Cl] [cisplatin]
RTV @day 21 [8]: 2.6 ± 0.2 | mRECIST_best [8]: 2/5 SD, and 3/5 PD | T/C (%) @ day 21 [8]: 90.2% | mRECIST_last [8]: 5/5 PD | T/C (%) [12, 13]: 65.0%

CC(=O)O[C@@]12CO[C@@H]1C[C@H](O)[C@@]1(C)C(=O)[C@H](O)C3=C(C)[C@@H](OC(=O)[C@H](O)[C@@H](NC(=O)OC(C)(C)C)c4ccccc4)C[C@@](O)([C@@H](OC(=O)c4ccccc4)[C@H]21)C3(C)C [docetaxel]
T/C (%) [10]: 72.4% | T/C (%) ([12]; FIG. 5: Compound 15 100 mg/kg, docetaxel 8 mg/kg): 54.5% | T/C (%) [12, 13]: 39.0%
